Data: patent US20070208077A1, “Adiponectin Enhancer” (priority 2004, published 2007)
“And” between values parts separate entries of the source, which are not always exact repeats. Identical values can stand only once.

How the values were obtained:
3T3-L1 cells = assay: Effect of inducing size reduction of adipocytes in pre-differentiated 3T3-L1 cell cultures; type: cell-based, mouse; conditions: sesamin 50 μM, 3T3-L1 cells pre-differentiated to adipocytes, 8 days of culturing, vs control
adiponectin = assay: Adiponectin production by 3T3-L1 adipocytes, ELISA of culture solution; type: cell-based, mouse; conditions: sesamin 50 μM, vs control
Procedure: Mouse-derived 3T3-L1 cells were treated for 42 hours in culturing solution containing insulin, dexamethasone and isobutylxanthine, for differentiation to adipocytes. The culture solution was removed and immediately combined with sesamin-free culturing solution (control) or culturing solution containing sesamin at a final concentration of 50 μM (sesamin), and after culturing for 48 hours, the culture solution was exchanged and culturing was continued for 6 days. The cell culturing was carried out in an incubator controlled to 5% CO2 gas-95% air at a temperature of 37° C. The adiponectin concentrations in the culture solutions were measured by Enzyme-Linked ImmunoSorbent Assay (Mouse/Rat Adiponectin ELISA Kit, Otsuka Pharmaceutical).

Zucker fatty rats = assay: Plasma adiponectin concentration of Zucker fatty rats, ELISA; type: in vivo, rat; conditions: male Zucker fatty rats, 0.1% sesamin in AIN-93G feed for four weeks, after overnight starving; control feed 6.06 ± 0.48
Procedure: The rats were divided into two groups with five rats per group, with the first group being freely given AIN-93G (growth stage feed, product of Nihon Crea) as the control group and the second group being freely given feed comprising 0.1% sesamin added to AIN-93G, for a four week period. After four weeks, blood was sampled after overnight starving, and the plasma was separated. The plasma adiponectin concentrations were assayed using an Enzyme-Linked ImmunoSorbent Assay (Mouse/Rat Adiponectin ELISA Kit, product of Otsuka Pharmaceutical).

adiponectin mRNA = assay: Cellular adiponectin mRNA level by quantitative RT-PCR in 3T3-L1 adipocytes; type: cell-based, mouse; conditions: sesamin 50 μM, 8 days of culturing
Procedure: (§1) Mouse-derived 3T3-L1 cells were treated for 42 hours in culturing solution containing insulin, dexamethasone and isobutylxanthine, for differentiation to adipocytes. The culture solution was removed and immediately combined with sesamin-free culturing solution (control) or culturing solution containing sesamin at a final concentration of 50 μM (sesamin), and after culturing for 48 hours, the culture solution was exchanged and culturing was continued for 6 days. The cell culturing was carried out in an incubator controlled to 5% CO2 gas-95% air at a temperature of 37° C. The cellular mRNA levels for adiponectin and TNFα were measured by quantitative RT-PCR using CYBR-Green (BMC Biotechnol. 3, 18, 2003).

TNFα mRNA = assay: Cellular TNFα mRNA level by quantitative RT-PCR in 3T3-L1 adipocytes; type: cell-based, mouse; conditions: sesamin 50 μM, 8 days of culturing, vs control
Procedure: as §1

SMILES: c1cc2c(cc1[C@H]1OC[C@H]3[C@@H]1CO[C@@H]3c1ccc3c(c1)OCO3)OCO2 [sesamin]
- influence on adipocyte size (3T3-L1 cells): numerous small adipocytes
- increase of adiponectin concentration in the cell cultured medium (adiponectin): 1.6 fold
- Plasma adiponectin (Zucker fatty rats): 6.53 µg/mL and 6.53 ± 0.54 µg/mL
- adiponectin mRNA levels in the adipocytes, increase with respect to the control group (adiponectin mRNA): 7 fold
- TNFα mRNA levels in the adipocytes (TNFα mRNA): decreased
